Patent US11396531B2, “Antimicrobial peptides comprising epsilon lysine residues” (priority 2016, dated 2022)
≈ marks a conversion by molar mass, not a printed value. Like-named read-outs stand apart in the source and are kept apart here. No end group written: not given here.

Columns and labels:
[1] = tested on: a number of micro-organisms; conditions: cited from earlier work
red blood cells = conditions: cited from earlier work
S. aureus = assay: microbe, parasite or virus in culture; format: cell-based, Staphylococcus aureus
Method: (§1) MIC of cationic polymers and polypeptide were tested in accordance with the Clinical and Laboratory Standards Institute (CLSI) guidelines against a panel of antibiotic-susceptible/-resistant bacteria, yeasts and fungal strains. Bacterial and yeast strains were cultured on tryptic soy agar (TSA) and Sabaroud dextrose agar (SDA) plates (Neogen Corporation, MI, USA) overnight respectively. Inocula in Mueller-Hinton broth (MHB) for bacteria and SD broth for C. albicans (Beckton Dickinson, MD, USA) were prepared at 0.5 McFarland. The suspensions were then diluted to a final concentration of 10^5 CFU/ml in a 96-well microtitre plate (SPL Life Sciences Co., Ltd, Korea). Polymers and polypeptides were added to the inoculum in 2-fold serial dilutions to give a range of concentrations from 2-1024 μg/ml. […] The antimicrobial activities were compared with topical antiseptic agents, BAK and CHX. A similar protocol was used to determine the MIC of εPL against antibiotic-resistant pathogens. MIC of the polymers and polypeptides against Fusarium strains was determined in full strength RPMI-1640 buffer. Fungal spores were recovered from a 5-day old culture on a potato dextrose agar and diluted to a concentration of 10^5 spores/ml in 0.9% saline solution. A further 50-fold dilution was done in RPMI-1640 buffer and 100 μl of the inoculum was added to 96 well plates containing an equal volume of test peptides at 2-fold serial dilutions. 200 μl of inoculum without any additives and buffer alone served as positive and negative controls, respectively. The plate was then incubated at 30° C. for 48 h. The absorbance value was measured at 600 nm as before and the lowest concentration of the peptide which inhibited 90% growth was reported. All MIC determinations were performed in duplicates.
(§2) MICs of polymers/antibiotics were determined using the microdilution method in 96 well microtitre plates (SPL Life Sciences Co., Ltd, Korea), following the guidelines of Clinical and Laboratory Standards Institute (CLSI) document M100-S18. Briefly, polymers (1-512 μg/ml) or antibiotics were dissolved in appropriate media (Mueller Hinton broth, MHB for bacteria; Sabaroud's Dextrose (SD) broth for yeasts and RPMI buffer for Fusarium strains) and 100 μl of this was then mixed with an equal volume of microbial inoculum (OD600=˜0.08) in the same media and shaken in a closed incubator.

K. pneumoniae = assay: microbe, parasite or virus in culture; format: cell-based, Klebsiella pneumoniae
Method: as §1, §2

E. coli = assay: microbe, parasite or virus in culture; format: cell-based, Escherichia coli
Method: as §1, §2

A. baumannii = assay: microbe, parasite or virus in culture
Method: as §1, with “Korea).” for “Korea). Polymers and polypeptides were added to the inoculum in 2-fold serial dilutions to give a range of concentrations from 2-1024 μg/ml.”
as §2

[2] = tested on: Carbapenam-resistant Enterobacter strains (CRE); assay: microbe, parasite or virus in culture
Method: as §1, with “Korea).” for “Korea). Polymers and polypeptides were added to the inoculum in 2-fold serial dilutions to give a range of concentrations from 2-1024 μg/ml.”
as §2

E. cloacae complex = assay: microbe, parasite or virus in culture
Method: as §1, with “Korea).” for “Korea). Polymers and polypeptides were added to the inoculum in 2-fold serial dilutions to give a range of concentrations from 2-1024 μg/ml.”
as §2

[3] = tested on: Vancomycin-resistant Enterococcus (VRE)
Method: as §1, with “Korea).” for “Korea). Polymers and polypeptides were added to the inoculum in 2-fold serial dilutions to give a range of concentrations from 2-1024 μg/ml.”
as §2

[4] = tested on: primary human dermal fibroblasts (HDFs); assay: MTS cytotoxicity assay
Method: MTS ((3-(4,5-dimethylthiazol-2-yl)-5-(3-carboxymethoxyphenyl)-2-(4-sulfophenyl)-2H-tetrazolium)) assay and high content analysis (HCA) were performed to elucidate the effect of various polymers on metabolic activity and morphological parameters of cultured human dermal fibroblasts (hDF), respectively as described previously. The antineoplastic agent, nocodazole (5 μg/ml), served as the […] control whereas cells treated with PBS served as positive control. The average values from three independent triplicate experiments are reported. Cells were cultured in 96-well plates and scanned (16 randomly selected fields/well) using an automated microscope IN Cell Analyzer 2200 (GE Healthcare). The multi-parametric cytotoxicity bio-application module of the IN Cell Investigator software (GE Healthcare) was used in quantitative estimations and morphotypic analysis of acquired images, which were automatically converted into color-coded heatmaps using Spotrfire® software.
Human dermal fibroblast cells were seeded in 96-well plates (2×10^3 cells/well) and incubated for 24 h at 37° C. and 5% CO2. Cells were then treated with various concentrations of polymers or peptides (62.5 μg/ml-1 mg/ml. At the end of the treatment period (after 24 h), 20 or 50 μl of MTS tetrazolium solution was added into 96-well or 12-well plates and further incubated for 2 h at 37° C. Subsequently, the absorbance was measured at 490 nm using a microplate reader (Infinite M200 Pro, Tecan, Switzerland) and the relative cell viability was calculated. Each treatment was performed in two triplicates and reported.
The cytotoxicity of peptides and polymers were determined using CellTier 96® Aqueous One solution cell proliferation assay kit according to the manufacturer's instruction (Promega Corporation, Madison, Wis.). This assay evaluates mitochondrial function by measuring ability of viable cells to reduce MTS ((3-(4,5-dimethylthiazol-2-yl)-5-(3-carboxymethoxyphenyl)-2-(4-sulfophenyl)-2H-tetrazolium)) into a quantifiable […] formazan product. HDFs were seeded in 96-well plates (2×10^3 cells/well) and incubated for 24 h at 37° C. and 5% CO2. Cells were then treated with a concentrated stock solution of polymers (final concentration 62.5-2000 μg/ml in the well) or peptides (final concentration 4-1000 μg/ml in the well). After 24 h, 20 μl of MTS tetrazolium solution was added into 96-well well plates and further incubated for 2 h at 37° C. Subsequently, the absorbance was measured at 490 nm using a microplate reader (Infinite M200 Pro, Tecan, Switzerland) and the relative cell viability was calculated relative to untreated control (10 mM PBS, pH 7.0). Each treatment was performed in two triplicates and reported.

P. aeruginosa = format: cell-based, Pseudomonas aeruginosa; conditions: P. aeruginosa (n = 22)
Method: as §1
MICs of polymers/antibiotics were determined using the microdilution method in 96 well microtitre plates (SPL Life Sciences Co., Ltd, Korea), following the guidelines of Clinical and Laboratory Standards Institute (CLSI) document M100-S18. […]

MRSA = format: cell-based, Staphylococcus aureus; conditions: MRSA (n = 9)
Method: as §1, §2

C. albicans = C. albicans (n = 5)
Method: as §1, with “Korea).” for “Korea). Polymers and polypeptides were added to the inoculum in 2-fold serial dilutions to give a range of concentrations from 2-1024 μg/ml.”
as §2

[5] = tested on: T-cell lymphomas (HuT78, MJ, HH) and B-cell lymphomas (Ly-4 and Ly-18); assay: Anticancer properties of hypercharged peptides (MTS); format: cell-based, human; conditions: 62.5-500 μg/ml
Method: The hyper-charged peptides were screened for their anticancer properties using cell lines derived from patients with various forms of cutaneous lymphomas, including T-cell lymphomas (HuT78, MJ, HH) and B-cell lymphomas (Ly-4 and Ly-18). The relative cytotoxicity of these peptides was also assessed in healthy primary peripheral blood lymphocyte (PBL) T-cells. Cytotoxicity was measured as the mitochondrial function by metabolic reduction of MTS.

[6] = at 5 × 10^5 CFU/mL, reference 5
[7] = at 5 × 10^5 CFU/mL, reference 7

## GIGAVLKVLTTGLPALISWIKRKRQQ-NH2 [Modified peptide: GIGAVLKVLTTGLPALISWIKRKRQQ-NH2]
[1]; [6]
  MIC (range against a number of micro-organisms): 0.8 - 12 μM at
Red blood cells; at 50 μM, reference 5
  Haemolytic activity: <25% at 50 μM

## GIGAVLKVLTTGLPALISWIKRKRQQ-NH2 [Unmodified parent peptide: GIGAVLKVLTTGLPALISWIKRKRQQ-NH2]
[1]; [6]
  MIC (range against a number of micro-organisms): 0.3 - 20 μM at
Red blood cells; at <10 μM, reference 5
  Haemolytic activity: 100% at <10 μM

## GIGAVLKVLTTGLCALISWIKRKRQQ (ends and bridges not checked)
Red blood cells; at 2.5 μM, reference 8
  Haemolytic activity: 50% at 2.5 μM

## GIGAVLKVLTTGLPALISWIKRKRQQ [listing 1 of 2 here]
[1]; reference 9, result in words
  MIC: Loss of peptide
Red blood cells; reference 9, result in words
  Haemolytic activity: Loss of peptide

## CGIGAVLKVLTTGLPALISWIKRKRQQC [Unmodified parent peptide: CGIGAVLKVLTTGLPALISWIKRKRQQC (lin]
[1]; [7]
  MIC (range against a number of micro-organisms): 2 - 32 μM at
Red blood cells; at 10 μM, reference 7
  Haemolytic activity: Complete

## CGIGAVLKVLTTGLPALISWIKRKRQQC [Modified peptide: CGIGAVLKVLTTGLPALISWIKRKRQQC (cyclised)] (also: cyclised, mode not given here)
[1]; [7]
  MIC (range against a number of micro-organisms): 0.8 - 10 μM at
Red blood cells; at 10 μM, reference 7
  Haemolytic activity: ~50% at 10 μM

## NC[C@H]1O[C@H](O[C@H]2[C@H](O)[C@@H](O[C@H]3O[C@H](CO)[C@@H](O)[C@H](N)[C@H]3O)[C@H](N)C[C@@H]2N)[C@H](N)C[C@@H]1O [Tobramycin]
S. aureus; Staphylococcus aureus, S. aureus (n = 9), read-out: MIC
  MIC: 500 to 1000 µg/mL (≈ 1070 to 2140 µM)
K. pneumoniae; Klebsiella pneumoniae, K. pneumoniae (n = 8), range over strains, read-out: MIC
  MIC: 195 to 100000 µg/mL (≈ 417 to 214000 µM)
E. coli; Escherichia coli, E. coli (n = 8), range over strains, read-out: MIC
  MIC: 195 to 100000 µg/mL (≈ 417 to 214000 µM)
A. baumannii; Acinetobacter baumannii
  MIC: 800 to 50000 µg/mL (≈ 1710 to 107000 µM)
[2]; Enterobacter
  MIC: 800 to 50000 µg/mL (≈ 1710 to 107000 µM)
E. cloacae complex; Enterobacter cloacae
  MIC: 1560 to 100000 µg/mL (≈ 3340 to 214000 µM)

## CC[C@H](C)[C@H](NC(=O)[C@H](CO)NC(=O)[C@H](CCCCN)NC(=O)[C@H](CC(C)C)NC(=O)[C@H](CCCCN)NC(=O)[C@@H](N)CC(C)C)C(=O)N[C@H](C(=O)N[C@@H](CO)C(=O)N[C@@H](Cc1c[nH]c2ccccc12)C(=O)N[C@@H](C)C(=O)N[C@@H](CCCCN)C(=O)N[C@@H](CCCCN)C(=O)N[C@H](C(=O)N[C@@H](CC(C)C)C(N)=O)C(C)C)C(C)C [Mastoparan B, LKLKSIVSWAKKVL]
A. baumannii; A. baumanii (n = 10), 90% of strains susceptible, Table 7
  MIC90: (MIC90 = 2) μg/ml
[2]; CRE (n = 19), 50% of strains susceptible, Table 7
  MIC50: (MIC50 = 4) μg/ml
[3]; VRE (n = 21), 90% of strains susceptible, Table 7
  MIC90: (MIC90 = 4)^1 μg/ml
[4]; MTS assay, primary human fibroblasts
  Peptide concentration required to impart cytotoxic effect: exceeded 62.5 μg/ml
[4]; Table 7
  Cytotoxicity for HDFs: 125 µg/mL

## N=C(N)NCCC[C@@H](NC(=O)[C@@H](N)CCCCNC(=O)[C@@H](CCCNC(=N)N)NC(=O)[C@@H](N)CCCCNC(=O)[C@@H](CCCNC(=N)N)NC(=O)[C@@H](N)CCCCNC(=O)[C@@H](CCCNC(=N)N)NC(=O)[C@@H](N)CCCCNC(=O)[C@@H](CCCNC(=N)N)NC(=O)[C@@H](N)CCCCNC(=O)[C@@H](CCCNC(=N)N)NC(=O)[C@@H](N)CCCCN)C(=O)O [HC4, KrKrKrKrKrKr]
P. aeruginosa
  MIC: 16 to 64 µg/mL
S. aureus; S. aureus (n = 6)
  MIC: 32 µg/mL (≈ 18.6 µM)
K. pneumoniae; K. pneumonia (n = 4)
  MIC: 16 to 128 µg/mL
E. coli; E. coli (n = 3)
  MIC: 16 µg/mL (≈ 9.28 µM)
A. baumannii; A. baumanii (n = 3)
  MIC: 16 to 32 µg/mL
[2]; CRE strains (n = 4)
  MIC: 64 to 128 µg/mL
E. cloacae complex; E. clocae complex (n = 4)
  MIC: 64 to 128 µg/mL
MRSA
  MIC: 16 to 64 µg/mL
C. albicans
  MIC: 16 to 32 µg/mL
[3]; VRE (n = 3)
  MIC: 16 µg/mL (≈ 9.28 µM)
[5]
  cell killing in lymphoma cell lines: varying degrees of cell killing

## GIGAVLKVLTTGLPALISWIKRKRQQ [listing 2 of 2 here]
[1]; at 1 - 4 × 10^5 CFU/mL, reference 4
  MIC (range against a number of micro-organisms): 0.1 - 2 μM at 1 -
Red blood cells; at 2 μM, reference 4
  Haemolytic activity: 100% at 2 μM

## GIGAVKKVLTTGKPALISWKKRKRQQ (not fully specified (residues 6, 13, 20); ends and bridges not checked; also: peptoid residue at 6, 13, 20 (identity not given here))
[1]; at 1 × 10^6 CFU/mL, reference 6
  MIC (range against a number of micro-organisms): 2 - 8 μM at
Red blood cells; at 100 μM, reference 6
  Haemolytic activity: <10% at 100 μM
